Changes are numbered by the printed parent chain.

In general, IC50 refers to the concentration that inhibits the measured activity by half. A higher IC50 goes with a need for much substance.

Holding throughout (assay type): cell-based
Experiment [1] addresses T1, TWIK1 (K2P1.1/KCNK1) (Homo sapiens, UniProt O00180, S224A).
T1 construct: full-length cDNA (OriGene) in pcDNA3.1(neo+), stably expressed in HEK293; mutants transiently transfected in HEK293 with CD8; homodimer
T1 sequence (O00180 1-336 S224A): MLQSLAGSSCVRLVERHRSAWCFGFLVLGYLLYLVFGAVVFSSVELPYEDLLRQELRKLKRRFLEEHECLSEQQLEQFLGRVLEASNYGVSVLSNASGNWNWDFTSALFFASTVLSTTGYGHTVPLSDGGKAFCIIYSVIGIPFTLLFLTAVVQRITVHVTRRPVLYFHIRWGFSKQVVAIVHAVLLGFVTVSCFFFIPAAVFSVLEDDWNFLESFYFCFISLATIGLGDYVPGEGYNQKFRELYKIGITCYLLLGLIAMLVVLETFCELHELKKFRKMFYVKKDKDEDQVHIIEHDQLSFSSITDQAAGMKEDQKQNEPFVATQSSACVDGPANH
The experiment can be described thus: whole-cell patch clamp, transiently transfected HEK293, Hill fit. (In general: Patch clamp records ionic current or voltage across a cell membrane.)

For experiment [2], the target named is T2, TWIK1 (K2P1.1/KCNK1) (Homo sapiens, UniProt O00180, L223A).
T2 construct: full-length cDNA (OriGene) in pcDNA3.1(neo+), stably expressed in HEK293; mutants transiently transfected in HEK293 with CD8; homodimer
T2 sequence (O00180 1-336 L223A): T1 sequence (O00180 1-336 S224A) with L223A, A224S
The experiment is described as above.

For experiment [3], the target named is T3, TWIK1 (K2P1.1/KCNK1) (Homo sapiens, UniProt O00180, T225A).
T3 construct: full-length cDNA (OriGene) in pcDNA3.1(neo+), stably expressed in HEK293; mutants transiently transfected in HEK293 with CD8; homodimer
T3 sequence (O00180 1-336 T225A): T1 sequence (O00180 1-336 S224A) with A224S, T225A
The experiment is described as above.

Experiment [4] has as its target T4, TWIK1 (K2P1.1/KCNK1) (Homo sapiens, UniProt O00180, I140A).
T4 construct: full-length cDNA (OriGene) in pcDNA3.1(neo+), stably expressed in HEK293; mutants transiently transfected in HEK293 with CD8; homodimer
T4 sequence (O00180 1-336 I140A): T1 sequence (O00180 1-336 S224A) with I140A, A224S
The experiment is described as above.

For experiment [5], the target named is T5, TWIK1 (K2P1.1/KCNK1) (Homo sapiens, UniProt O00180).
T5 construct: full-length cDNA (OriGene) in pcDNA3.1(neo+), stably expressed in HEK293; mutants transiently transfected in HEK293 with CD8; homodimer
T5 sequence (O00180 1-336): T1 sequence (O00180 1-336 S224A) with A224S
As to the kind of experiment: whole-cell patch clamp, HEK293-TWIK1 stable line, Hill fit.

The target in experiment [6] is T6, TWIK1 (K2P1.1/KCNK1) (Homo sapiens, UniProt O00180, G229A).
T6 construct: full-length cDNA (OriGene) in pcDNA3.1(neo+), stably expressed in HEK293; mutants transiently transfected in HEK293 with CD8; homodimer
T6 sequence (O00180 1-336 G229A): T1 sequence (O00180 1-336 S224A) with A224S, G229A
As to the kind of experiment: whole-cell patch clamp, transiently transfected HEK293, Hill fit.

For the compound `C=CCc1ccc(O)c(-c2cc(CC=C)ccc2O)c1` [magnolol], the concentration for half-maximal inhibition (IC50) in experiment [1] is 7.43 ± 3.2 µM; in experiment [2], 9.55 ± 1.62 µM; in experiment [3], 21.8 ± 7.93 µM; in experiment [4] it was 10.2 ± 1.07 µM; in experiment [5], 6.21 ± 0.13 µM; in experiment [6], 20.8 ± 3.2 µM.

These data come from publication PMC10574557, “The Inhibitory Effect of Magnolol on the Human TWIK1 Channel Is Related to G229 and T225 Sites” (Molecules, 2023).
